The source of these data is patent US20250154180A1, “CRK-LIKE (CRKL) ADAPTOR PROTEIN INHIBITORS AND METHODS OF MAKING AND USING THE SAME” (Rutgers, The State University of New Jersey, priority 2022, published 2025).

Data set [1] addresses CrkL (Homo sapiens, UniProt P46109). Briefly: Thermal shift assay, CrkL. In kind it is binding. The following applies: increase of 2° C. or greater in Tm defined as positive. How it is done:
Thermal Shift Assay—Thermal shift assay is a thermal-denaturation assay, which can measure the thermal stability of a tested protein. When a protein of interest is bound to a ligand (or drug), its melting temperature increases. For each single well assay, CrkL (1 μg per well), SYPRO® Orange (1:500 dilution from original stock), candidate drugs (same final concentration as in AlphaScreen) and reaction buffer (1×TBS) were mixed. The total volume for a single well was 10 ul. The assay was quantified by a melt curve on a real-time PCR machine, using melting temperatures from 20° C. to 95° C.
To identify specific pCrk inhibitors, thermal shift and in vitro kinase assays were used to distinguish between these possibilities. In a thermal shift assay, each tested protein (purified Ab1 or CrkL) has a melting temperature (Tm) detected by a protein stain dye such as Sypro Orange. After binding to a drug, the Tm of the tested protein will increase as a higher temperature is required to unfold the protein (FIG. 2A). A total of 71 candidate compounds from different libraries were evaluated, which were previously identified by the initial AlphaScreen assay, on both CrkL and Ab1. An increase of 2° C. or greater in Tm (stable increase in three independent experiments) was defined as a positive result in these thermal shift assays.

Data set [2] deals with Ab1 (Homo sapiens, UniProt P00519). Briefly: Thermal shift assay, Ab1. In kind it is binding.
Chain of Ab1 (P00519 whole entry): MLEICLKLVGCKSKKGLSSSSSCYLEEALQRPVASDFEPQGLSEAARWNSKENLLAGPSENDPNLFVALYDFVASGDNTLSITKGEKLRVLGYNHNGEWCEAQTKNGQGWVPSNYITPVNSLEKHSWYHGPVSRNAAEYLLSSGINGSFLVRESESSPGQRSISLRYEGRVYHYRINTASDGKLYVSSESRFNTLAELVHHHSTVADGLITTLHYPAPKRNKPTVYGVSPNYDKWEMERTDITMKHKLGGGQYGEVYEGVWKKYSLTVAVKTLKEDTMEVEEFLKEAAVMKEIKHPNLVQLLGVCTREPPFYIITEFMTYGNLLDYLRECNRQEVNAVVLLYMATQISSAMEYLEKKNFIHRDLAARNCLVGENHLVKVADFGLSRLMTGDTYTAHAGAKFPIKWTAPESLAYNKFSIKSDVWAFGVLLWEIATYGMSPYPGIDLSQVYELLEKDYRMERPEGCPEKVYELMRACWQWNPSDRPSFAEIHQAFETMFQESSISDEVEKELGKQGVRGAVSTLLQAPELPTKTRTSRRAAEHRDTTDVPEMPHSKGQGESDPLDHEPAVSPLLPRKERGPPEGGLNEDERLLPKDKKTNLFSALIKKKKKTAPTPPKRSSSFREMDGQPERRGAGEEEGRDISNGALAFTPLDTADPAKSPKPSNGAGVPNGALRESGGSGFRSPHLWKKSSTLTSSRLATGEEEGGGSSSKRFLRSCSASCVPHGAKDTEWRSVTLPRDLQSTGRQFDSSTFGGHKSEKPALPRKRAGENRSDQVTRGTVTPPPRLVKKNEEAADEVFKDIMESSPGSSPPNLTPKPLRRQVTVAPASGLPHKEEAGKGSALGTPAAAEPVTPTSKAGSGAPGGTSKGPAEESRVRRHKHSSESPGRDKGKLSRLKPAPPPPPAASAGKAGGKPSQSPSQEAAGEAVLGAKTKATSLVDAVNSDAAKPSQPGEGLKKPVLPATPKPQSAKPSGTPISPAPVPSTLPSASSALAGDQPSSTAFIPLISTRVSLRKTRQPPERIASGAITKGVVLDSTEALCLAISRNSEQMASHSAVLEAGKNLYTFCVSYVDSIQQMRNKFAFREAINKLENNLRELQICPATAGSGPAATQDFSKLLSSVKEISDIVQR
Description: In a thermal shift assay, each tested protein (purified Ab1 or CrkL) has a melting temperature (Tm) detected by a protein stain dye such as Sypro Orange. […] An increase of 2° C. or greater in Tm (stable increase in three independent experiments) was defined as a positive result in these thermal shift assays.
Data set [3] relates to hematopoietic cancer cell lines (K562, NK92-MI, Daudi, KHYG-1). Briefly: MTT assay, hematopoietic cancer cell lines. To be noted: five M Pomiferin for three days; compared with MDA-MD-231-LUC. The class given is cell-based. How it is done: MTT assay—The MTT assay was used to detect cell proliferation. Briefly, cells were plated in a 96-well plate at a density of 50,000 cells/well in 200 μl of culture medium with candidate drugs to be tested (DMSO as a negative control). The treated cells were incubated for four hours a 37° C. with a 5% CO2 incubator to allow dark crystals to form at the bottom of the wells. […] After aspirating the culture medium from each well, 100 μl of crystal dissolving solution was added to each well and incubated for 10 minutes at RT. The signal was quantified by measuring the absorbance in each sample at 570 nm using a microplate reader.
To further test the inhibitory specificity of Pomiferin for specific breast cancer cell lines, The survival percentage was compared between different hematopoietic cancer cell lines and healthy PBMCs.

Data set [4] relates to 4T1 breast tumor. Briefly: 4T1-Luc orthotopic syngeneic breast tumor model. In kind it is in vivo, Balb/c mice. To be noted: 5.0 μg/g oral gavage. An excerpt:
Syngeneic orthotopic 4T1 breast tumor-bearing mouse model was established by inoculating 5×10^4 4T1-Luc cells mixed with Matrigel were into the left inguinal fat pad of Balb/c mice from Jackson Laboratories. This orthotopic syngeneic breast tumor model is a tool for preclinical testing of anti-cancer drugs or immunotherapy that require an intact immune system to elicit activity.
To test the effects of the disclosed compounds on the xenograft mouse models, the HCC-Sk-Hep1 cell line xenograft model in NSG mice and 4T1-Luc orthotopic syngeneic breast tumor model in Balb/c mice was used. After confirming the palpable tumor in NSG or Balb/c mice. […] Compound III is referred to as “NC5-140-1” and Compound I is referred to as “NC5-140-2” in FIGS. 11A-11C.

A short description of data set [5]: Mouse toxicity assays (serum ALT, AST, BUN, creatinine). In kind it is in vivo, mice. The following applies: mouse, in vivo. How it is done: Three mice were treated in each group. Blood samples were collected from every mouse in pre-treatment and post-treatment (20 days), and serum was obtained for alanine aminotransferase (ALT, SGPT, FIG. 12A), aspartate aminotransferase (AST, SGOT, FIG. 12B), blood urea nitrogen (BUN, FIG. 12C), and creatinine (FIG. 12D) tests to monitor liver and kidney toxicity. The normal Reference Ranges for ALT is 17-77 IU/L; AST is 54-298 IU/L; BUN is 18.5-33.3 mg/dL; Cr is 0-0.40 mg/dL.
Mouse toxicity assays—Blood was collected from the submandibular facial vein following IACUC guidelines (CMP, Houston Methodist Research Institute and Rutgers University) before and 20-day after the drug treatment. The Department of Veterinary Medicine & Surgery, MD Anderson Cancer Center, performed the clinical biochemistry and pharmacokinetics tests. Blood serum chemistry analysis included alanine transaminase (ALT), aspartate transaminase (AST), blood urea nitrogen (BUN), and creatinine level measurements.
Alanine aminotransferase (ALT, SGPT), aspartate aminotransferase (AST, SGOT), blood urea nitrogen (BUN), and creatinine levels were examined to determine liver and kidney toxicity of Pomiferin treatments in vivo. […] Nevertheless, these changes have no physiological significance because ALT, AST and BUN levels in all mice were within normal mouse reference ranges. […]

The test system of data set [6] is TNBC cells (MDA-231 and MDA-468). Description: Annexin V/PI apoptosis, TNBC (MDA-231 and MDA-468). In kind it is cell-based. The following applies: 1 uM, 24 hours. How it is done:
Annexin V/PI Staining—Experimental cells were collected, washed with 1×PBS, resuspended in the binding buffer, and stained with an Annexin V-FITC assay Kit (Millipore Sigma). The cells were incubated with 50 μg/ml Annexin V in 1× binding buffer at room temperature for 15 minutes, then 10 μg/ml propidium iodide for another 15 minutes and analyzed by flow cytometry (EPICS XL). Annexin V-positive/PI-negative cells were considered early apoptotic, cells with both Annexin V and PI-positive to be late apoptotic, and Annexin V negative but PI-positive to be “necrotic.” The percent of apoptosis was calculated as the sum of the percentages of both early and late apoptotic cells.
To figure out the features of cytotoxic effects of Pomiferin on breast cancer cells. Pomiferin-treated breast cancer cells were stained with an Annexin V/PI kit and measured them with Flow Cytometry.

Data set [7] deals with PBNK cells killing activity towards SK-Hep1. Briefly: Cr51 release assay, PBNK killing of SK-Hep1. To be noted: 1 uM overnight. In kind it is cell-based. On the procedure:
PBNK cells were incubated with 1 uM NC5 or Compound III overnight, then cells were harvested for Cr51 release assay to check cell cytotoxicity. […] The star symbol indicates the significance of vehicle control vs. NC5 of the indicated E:T ratios. *p<0.05, **p<0.01, n=3.

Chain of CrkL (P46109 whole entry): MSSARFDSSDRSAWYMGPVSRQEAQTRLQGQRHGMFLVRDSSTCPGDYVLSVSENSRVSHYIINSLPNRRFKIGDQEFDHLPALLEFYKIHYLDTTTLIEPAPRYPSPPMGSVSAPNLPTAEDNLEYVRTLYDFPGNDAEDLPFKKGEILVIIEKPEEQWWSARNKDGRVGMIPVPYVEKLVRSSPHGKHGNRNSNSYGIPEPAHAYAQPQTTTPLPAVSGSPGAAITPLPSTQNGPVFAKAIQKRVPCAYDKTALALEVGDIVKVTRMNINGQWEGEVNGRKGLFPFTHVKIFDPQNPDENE

On to `CC(C)=CCc1c2c(c3occ(-c4ccc(O)c(O)c4)c(=O)c3c1O)C=CC(C)(C)O2` [Pomiferin, 3′,4′,5-Trihydroxy-6″,6″-dimethyl-6-(3-methylbut-2-en-1-yl)-6″H-pyrano[2″,3″:7,8]isoflavone], for which the “Tm of CrkL (thermal shift)” value in data set [1] is reported as “the Tm of CrkL increased”. Moreover, the “binding to Ab1 versus Crk (thermal shift)” value in data set [2] is “specifically binds to Crk, but not Ab1 proteins”. For the same compound, in data set [3], the “sensitivity to Pomiferin (survival percentage, MTT)” value was “more resistant to Pomiferin inhibition”. Besides, the tumor growth entry in data set [4] is given as “steady growth inhibition”. Besides, the median survival in data set [4] (vehicle 25 days) was 38.5 days. In addition, in data set [5], the “damage to the liver and kidneys” value is “little to no damage to the liver and kidneys”. Further, the apoptosis entry in data set [6] is listed as “significantly induced apoptosis”. For the same compound, the “PBNK cells killing activity (Cr51 release)” value in data set [7] is on record as “increased PBNK cells killing activity”.
